Reference: US20230203029A1 (priority 2020, published 2023)

Assays:
[1] = target: T1, human MERTK cytoplasmic domain (Homo sapiens, UniProt Q12866); assay: biochemical; conditions: 30 uM ATP; read-out: Assay 1a Mer IC50 30 uM ATP
T1 construct: human MERTK cytoplasmic domain (Carna Biosciences 08-108); purchased Carna Biosciences 08-108
Procedure: Assay 1a—MERTK HTRF KinEASE-TK Assay
The enzymatic reaction was carried out for 30 min at room temperature. 10 μL TK Antibody-Cryptate/Streptavidin-XL665 (Cisbio 610SAXLG) was then added for 60 min, including EDTA containing detection buffer (Cisbio 62SDBRDF) to stop the reaction.

[2] = target: T2, Ba/F3 Pro B-cell line expressing TEL-human Tyro3 fusion domain (Homo sapiens, UniProt Q06418); type: cell-based; conditions: cell survival, 48 h, CellTiter-Glo
T2 sequence (Q06418 518-790 limits assumed): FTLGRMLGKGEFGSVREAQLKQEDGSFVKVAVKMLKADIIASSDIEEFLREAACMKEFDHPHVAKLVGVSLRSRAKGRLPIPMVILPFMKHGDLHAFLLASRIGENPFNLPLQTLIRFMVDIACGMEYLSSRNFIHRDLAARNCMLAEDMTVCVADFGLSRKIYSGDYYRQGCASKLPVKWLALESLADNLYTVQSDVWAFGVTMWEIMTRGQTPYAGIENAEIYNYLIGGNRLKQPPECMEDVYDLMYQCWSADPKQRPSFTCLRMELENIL
Procedure: (§1) Assay 5—Ba/F3 Cell Survival Assays.
(§2) The inhibitory potencies of compounds were assessed in a Ba/F3 cell survival assay, using the Ba/F3 Pro B-cell line, recombinantly expressing a BCR-human AXL kinase domain fusion protein (pACD320/AXL, Advanced Cellular Dynamics Inc), TEL-human MERTK fusion domain (pACD1000/MERTK, Advanced Cellular Dynamics Inc), TEL-human Tyro3 fusion domain (pACD1000/TYRO3, Advanced Cellular Dynamics Inc), or control TEL-none (ACD320, Advanced Cellular Dynamics Inc) BRC-none constructs (ACD1000, Advanced Cellular Dynamics Inc). 10 ng/mL recombinant murine IL3 (R&D, 403-ML-010) was included in the media when propagating negative control TEL-none or BCR-none lines only. Cells were maintained in RMPI 1640 (Corning 15-040-CV) culture media containing 10% heat inactivated semi-synthetic FBS (RMBIO FGR-BBT), 2 mM L-Glutamine (Sigma, G7513), 100 IU/mL Penicillin-10 mg/mL Streptomycin (Sigma, P4333), and 500 ng/mL Puromycin (Sigma, P8833). Experiments were performed in 50 μl growth media, including the test compounds of interest, and dispensing 5000 cells/well in logarithmic-phase growth into a 384 well white Optiplate (Perkin Elmer 6007299). […] The final assay DMSO concentration was 0.25%. Compound incubations were conducted for 48 h at 37° C./5% CO2, after which cell plate was equilibrated at room temperature for 20 minutes prior to assessing viability. 15 μl of Promega CellTiter-Glo reagent (G7572) was added to each well for 2 min on an orbital shaker to induce cell lysis.
(§3) The plate was then equilibrated for 5 min at room temperature and luminescence read on a BMG Pherastar FSX using the LUM plus optic module. Data were normalised to measurements in the absence of competing compound (0% inhibition). Competition curves were then fit to a 4 parameter logistic equation including a variable slope factor to determine the IC50 (compound concentration causing a half-maximal inhibition of cell survival).

[3] = target: T3, Ba/F3 Pro B-cell line expressing TEL-human MERTK fusion domain (Homo sapiens, UniProt Q12866); type: cell-based; conditions: cell survival, 48 h, CellTiter-Glo; read-out: TEL-MERTK Ba/F3 IC50
T3 sequence (Q12866 587-858 limits assumed): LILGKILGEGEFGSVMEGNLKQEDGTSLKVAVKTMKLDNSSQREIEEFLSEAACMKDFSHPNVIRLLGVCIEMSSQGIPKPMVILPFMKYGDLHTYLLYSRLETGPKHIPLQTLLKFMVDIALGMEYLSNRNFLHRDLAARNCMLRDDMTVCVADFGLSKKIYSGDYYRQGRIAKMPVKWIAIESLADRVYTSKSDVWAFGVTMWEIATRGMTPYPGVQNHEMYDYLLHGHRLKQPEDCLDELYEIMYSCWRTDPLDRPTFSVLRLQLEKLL
Procedure: as §1
as §2, with “only.” for “only. Cells were maintained in RMPI 1640 (Corning 15-040-CV) culture media containing 10% heat inactivated semi-synthetic FBS (RMBIO FGR-BBT), 2 mM L-Glutamine (Sigma, G7513), 100 IU/mL Penicillin-10 mg/mL Streptomycin (Sigma, P4333), and 500 ng/mL Puromycin (Sigma, P8833). Experiments were performed in 50 μl growth media, including the test compounds of interest, and dispensing 5000 cells/well in logarithmic-phase growth into a 384 well white Optiplate (Perkin Elmer 6007299).”
as §3, with “Data were normalised to measurements in the absence of competing compound (0% inhibition).” left out

[4] = target: T4, human AXL cytoplasmic domain (Homo sapiens, UniProt P30530); assay: Assay 1b AXL HTRF KinEASE-TK assay; type: biochemical
T4 construct: human AXL cytoplasmic domain (Thermo Fisher A31515); purchased Thermo Fisher A31515
T4 sequence (P30530 473-894 limits assumed): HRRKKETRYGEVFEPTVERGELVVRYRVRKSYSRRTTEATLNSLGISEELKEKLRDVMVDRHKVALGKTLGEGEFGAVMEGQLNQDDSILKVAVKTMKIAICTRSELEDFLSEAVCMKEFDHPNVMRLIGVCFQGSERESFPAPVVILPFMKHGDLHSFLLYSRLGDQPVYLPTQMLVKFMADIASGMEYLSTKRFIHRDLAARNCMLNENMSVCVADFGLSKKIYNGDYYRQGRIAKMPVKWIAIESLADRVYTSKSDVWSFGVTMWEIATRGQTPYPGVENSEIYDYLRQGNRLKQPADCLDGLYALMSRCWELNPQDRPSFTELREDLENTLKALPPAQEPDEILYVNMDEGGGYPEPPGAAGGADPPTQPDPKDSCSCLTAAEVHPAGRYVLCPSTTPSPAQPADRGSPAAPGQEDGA
Procedure: Assay 1b—AXL HTRF KinEASE-TK Assay
Compound inhibition of human AXL cytoplasmic domain (Thermo Fisher A31515) enzymatic activity was tested via the HTRF KinEASE-tyrosine kinase (TK) kit (Cisbio 62TK0PEC). Experiments were performed in 20 μl enzymatic buffer (Cisbio 62EZBFDD) supplemented with 5 mM MgCl2, 1 mM MnCl2, 1 mM DTT, 50 nM SEB (Cisbio, 61SEBALB), with 5 nM of AXL and the test compounds of interest. […] The enzymatic reaction was carried out for 30 min at room temperature. 10 μL TK Antibody-Cryptate/Streptavidin-XL665 (Cisbio 610SAXLG) was then added for 60 min, including EDTA containing detection buffer (Cisbio 62SDBRDF) to stop the reaction. The plate was read on a BMG Pherastar FSX using a HTRF 337/620/665 optical module to excite the terbium donor at 337 nm, and record donor emission at 620 nm and acceptor fluorophore emission at 665 nm. From this the FRET ratio (acceptor 665 nm/donor 620 nm) for each data point was calculated. […] Competition curves were then fit to a 4 parameter logistic equation including a variable slope factor to determine the IC50 (compound concentration that inhibits 50% of AXL activity).

T1 sequence (Q12866 527-999): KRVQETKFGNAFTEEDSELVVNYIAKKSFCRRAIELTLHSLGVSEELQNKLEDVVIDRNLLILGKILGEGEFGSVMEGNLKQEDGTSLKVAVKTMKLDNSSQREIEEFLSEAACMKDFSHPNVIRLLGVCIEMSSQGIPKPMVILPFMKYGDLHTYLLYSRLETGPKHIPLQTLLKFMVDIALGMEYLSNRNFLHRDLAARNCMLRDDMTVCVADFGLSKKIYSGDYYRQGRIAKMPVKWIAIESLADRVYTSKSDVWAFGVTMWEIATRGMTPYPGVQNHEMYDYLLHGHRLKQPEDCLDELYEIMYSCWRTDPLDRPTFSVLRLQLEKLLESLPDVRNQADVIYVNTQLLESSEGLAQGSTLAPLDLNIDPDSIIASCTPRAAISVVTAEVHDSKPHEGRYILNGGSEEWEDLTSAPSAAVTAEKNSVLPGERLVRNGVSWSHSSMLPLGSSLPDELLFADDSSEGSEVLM

IC50 [1] [nM] | IC50 [4] [nM] | SMILES | IC50 [2] [nM] | IC50 [3] [nM]
137 |  | CN1CCC(NC(=O)c2cc3c(Oc4cnc(NC(=O)c5cccn(-c6ccc(F)cc6)c5=O)nc4)ccnc3cn2)CC1 [Example 19, 4-[2-[[1-(4-Fluorophenyl)-2-oxo-pyridine-3-carbonyl]amino]pyrimidin-5-yl]oxy-N-(1-methyl-4-piperidyl)-1,7-naphthyridine-6-carboxamide] |  | 
134 |  | Cc1c(C(=O)Nc2ccc(Oc3ccnc4cnc(N5CCNCC5)cc34)cc2)c(=O)n(-c2ccccc2)n1C [Example 12.8, 1,5-dimethyl-3-oxo-2-phenyl-N-[4-[(6-piperazin-1-yl-1,7-naphthyridin-4-yl)oxy]phenyl]pyrazole-4-carboxamide] |  | 
1 | 10 | CN1CCC(C(=O)Nc2cc3c(Oc4ccc(NC(=O)c5cccn(-c6ccc(F)cc6)c5=O)nc4)ccnc3cn2)CC1 [Example 18.1, 1-(4-fluorophenyl)-N-[5-[[6-[(1-methylpiperidine-4-carbonyl)amino]-1,7-naphthyridin-4-yl]oxy]-2-pyridyl]-2-oxo-pyridine-3-carboxamide] | 250 | 13
392 |  | CC(C)n1cc(C(=O)Nc2ccc(Nc3ccnc4cnc(C(=O)NOCCO)cc34)cc2)c(=O)n(-c2ccc(F)cc2)c1=O [Example 7, 4-[4-[[3-(4-fluorophenyl)-1-isopropyl-2,4-dioxo-pyrimidine-5-carbonyl]amino]anilino]-N-(2-hydroxyethoxy)-1,7-naphthyridine-6-carboxamide] |  | 
6 | 14 | CN1CCN(c2cc3c(Oc4ccc(NC(=O)c5cccn(-c6ccc(F)cc6)c5=O)nc4)ccnc3cn2)CC1 [Example 10.1, 1-(4-fluorophenyl)-N-[5-[[6-(4-methylpiperazin-1-yl)-1,7-naphthyridin-4-yl]oxy]-2-pyridyl]-2-oxo-pyridine-3-carboxamide] | 119 | 16
54 |  | CC(C)n1cc(C(=O)Nc2ccc(Nc3ccnc4cnc(C(=O)NCCN(C)C)cc34)cc2)c(=O)n(-c2ccc(F)cc2)c1=O [Example 7.1, N-[2-(dimethylamino)ethyl]-4-[4-[[3-(4-fluorophenyl)-1-isopropyl-2,4-dioxo-pyrimidine-5-carbonyl]amino]anilino]-1,7-naphthyridine-6-carboxamide] |  | 
13 |  | CC(C)n1cc(C(=O)Nc2ccc(Oc3ccnc4cnc(C5CCN(C)CC5)cc34)cn2)c(=O)n(-c2ccc(F)cc2)c1=O [Example 23.1, 3-(4-fluorophenyl)-1-isopropyl-N-[5-[[6-(1-methyl-4-piperidyl)-1,7-naphthyridin-4-yl]oxy]-2-pyridyl]-2,4-dioxo-pyrimidine-5-carboxamide] | 568 | 15
722 |  | O=C(Nc1ccc(Oc2ccnc3cnc(N4CCNCC4)cc23)cc1)c1cccn(-c2ccccn2)c1=O [Example 12.1, 2-oxo-N-[4-[(6-piperazin-1-yl-1,7-naphthyridin-4-yl)oxy]phenyl]-1-(2-pyridyl)pyridine-3-carboxamide] |  | 
245 |  | Cc1c(C(=O)Nc2ccc(Oc3ccnc4cnc(C(=O)NC5CCN(C)CC5)cc34)cc2)c(=O)n(-c2ccccc2)n1CC(C)(C)O [Example 8.4, 4-[4-[[1-(2-hydroxy-2-methyl-propyl)-5-methyl-3-oxo-2-phenyl-pyrazole-4-carbonyl]amino]phenoxy]-N-(1-methyl-4-piperidyl)-1,7-naphthyridine-6-carboxamide] |  | 
154 |  | CN1CCC(NC(=O)c2cc3c(Oc4ccc(NC(=O)c5cccn(-c6ccccn6)c5=O)cc4)ccnc3cn2)CC1 [Example 8, N-(1-methyl-4-piperidyl)-4-[4-[[2-oxo-1-(2-pyridyl)pyridine-3-carbonyl]amino]phenoxy]-1,7-naphthyridine-6-carboxamide] |  | 
16 | 36 | O=C(Nc1ccc(Oc2ccnc3cnc(N4CCNCC4)cc23)cc1)c1c[nH]cc(-c2ccc(F)cc2)c1=O [Example 12.7, 5-(4-fluorophenyl)-4-oxo-N-[4-[(6-piperazin-1-yl-1,7-naphthyridin-4-yl)oxy]phenyl]-1H-pyridine-3-carboxamide] |  | 
133 |  | Cc1c(C(=O)Nc2ccc(Oc3ccnc4cnc(C(=O)NC5CCN(C)CC5)cc34)cc2)c(=O)n(-c2ccccc2)n1C [Example 8.3, 4-[4-[(1,5-Dimethyl-3-oxo-2-phenyl-pyrazole-4-carbonyl)amino]phenoxy]-N-(1-methyl-4-piperidyl)-1,7-naphthyridine-6-carboxamide] |  | 
535 |  | O=C(Nc1ccc(Nc2ccnc3cnc(C(=O)N4CCC4)cc23)cc1)c1cccn(-c2ccccc2)c1=O [Example 5.4, N-[4-[[6-(azetidine-1-carbonyl)-1,7-naphthyridin-4-yl]amino]phenyl]-2-oxo-1-phenyl-pyridine-3-carboxamide] |  | 
